One series concerns IFV A/PR/8/34. Kind of series: cytopathic effect (CPE) antiviral assay in MDCK cells, IFV A/PR/8/34. The following applies: 120 h, CPE method, 5 days, CCK-8 cell viability. The series is classed as cell-based, influenza viruses. (In general: Cytopathic effects are the visible damage that an infection or toxin causes in cultured cells.)
The subject of the next series is IFVA/Weiss/43. Kind of series: cytopathic effect (CPE) antiviral assay in MDCK cells, IFVA/Weiss/43. The series is classed as cell-based, influenza viruses. The following applies: 120 h, CPE method, 5 days, CCK-8 cell viability.
A further series deals with IFVA/Mal/302/54. Briefly: cytopathic effect (CPE) antiviral assay in MDCK cells, IFVA/Mal/302/54. The following applies: 120 h, CPE method, 5 days, CCK-8 cell viability. The series is classed as cell-based, influenza viruses.
Series [1] can be described thus: hygroscopicity experiment, dynamic vapor sorption (DVS). It is filed as physicochemical. The following applies: 25° C.
A short description of series [2]: experiment of crystal form transformation in water. The following applies: room temperature, stirring of magma for 7 days, XRPD. The series is classed as physicochemical.

Broadly, the EC50 is the concentration that produces a half-maximal response. Higher therefore signals a need for much substance. Take `Cc1nnn([C@@H](c2ccccc2)C2CCN(C(=O)c3cc(-c4nc5cc(NC(=O)[C@@H]6C[C@@H]6F)ccc5o4)ccn3)CC2)n1` [Compound A, (1S,2S)-2-fluoro-N-(2-(2-(4-((R)-(5-methyl-2H-tetrazol-2-yl)(phenyl)methyl)piperidine-1-carbonyl)pyridin-4-yl)benzo[d]oxazol-5-yl)cyclopropane-1-carboxamide]: the results for the concentration giving a half-maximal response (EC50) in the series with IFV A/PR/8/34, in the series with IFVA/Weiss/43 and in the series on IFVA/Mal/302/54 were 12 nM, 3 nM and 14 nM, respectively. Besides, the “weight change in a range of 0% RH to 80% RH” value in series [1] (listed as amorphous form of the compound A) was “approximately 3.8%”.
With `Cc1nnn([C@@H](c2ccccc2)C2CCN(C(=O)c3cc(-c4nc5cc(NC(=O)[C@@H]6C[C@@H]6F)ccc5o4)ccn3)CC2)n1` [crystal form I, (1S,2S)-2-fluoro-N-(2-(2-(4-((R)-(5-methyl-2H-tetrazol-2-yl)(phenyl)methyl)piperidine-1-carbonyl)pyridin-4-yl)benzo[d]oxazol-5-yl)cyclopropane-1-carboxamide], the “crystal form after stirring of magma in water” value in series [2] is “remained unchanged after the magma”. The “weight change in a range of 0% RH to 80% RH” value in series [1] is “approximately 0.3%”.

Source of the values: patent US20240092768A1, “CRYSTAL FORM OF ANTI-INFLUENZA VIRUS COMPOUND, PREPARATION METHOD FOR CRYSTAL FORM, AND USE OF CRYSTAL FORM” (XIZANG HAISCO PHARMACEUTICAL CO., LTD., priority 2021, published 2024).
